One experiment deals with T2 cells. The experiment in a line: LDH release assay of CD8+ T cell killing activity. Also on record: Killing efficiency: concentration or dose not given beside the values. Particulars: for Killing efficiency: 4 hours; for Killing of T2 cells loaded with the mutant polypeptide by activated T cells / Killing of T2 cells loaded with the wild-type polypeptide by activated T cells: ratio of effector cells to target cells of 1:1 or 1:10 (so in the source). In kind it is cell-based, human. The method, then:
The mixture of cells collected in the example 3 were incubated with the T2 cells loaded with the mutant polypeptide (depicted in […], SEQ ID NO:1) or the wild-type polypeptide (depicted in […], SEQ ID NO:7), or the T2 cells without polypeptide respectively for 4 hours; after which […], cell supernatant collected from each well was individually added into 50 μL substrate mixture of LDH for catalyzation of the LDH substrate, and the absorbance at wavelengths of 490 nm and 680 nm (as a reference) is measured, where a maximum release well, a volume correction well, a medium alone well, a spontaneous release well of effector cell and a spontaneous release well of target well as different control wells, as well effector cells (T cells) and target cells (T2 cell) in different ratios as experiment wells are set in triplicate.
The killing efficiency of CD8^+ T cells to T2 cells is calculated by the following formula: Killing efficiency (%)=(experiment well−spontaneous release well of effector cell−spontaneous release well of target well+medium alone well)/(maximum release well of target well-volume correction well-spontaneous release well of target well+medium alone well)×100%.
In general terms: Release of lactate dehydrogenase indicates damage to the cell membrane.

Experiment [1] relates to human non-small cell lung adenocarcinoma cell line H2087-polypeptide FILDGLYSV
Kind of experiment: Polypeptide-specific DC-CTL vaccine in subcutaneous tumor-modeled NOD/SCID mice. The experiment is classed as in vivo. The note with it: CTLs stimulated by DCs loaded with the polypeptide, i.v. 1×10^8 cells/mouse; vs wild-type CTL group. The method, then: After isolated with Ficoll solution from 600 to 900 ml anticoagulant peripheral blood from a healthy volunteer, the collected PBMCs in a concentration of 2×10^7 cells/0.5 ml were intraperitoneally injected into each of 300 NOD SCID mice without immune leakage, so as to reconstruct a human immune system in the NOD SCID mice, with the mice after 4 weeks selected for subsequent inoculation of the human non-small cell lung adenocarcinoma cell line H2087-polypeptide […] obtained in 6.2.
The human non-small cell lung adenocarcinoma cell line H2087-polypeptide […] (SEQ ID NO:1) obtained in 6.2 was incubated in DMEM medium containing 10% fetal calf serum, 100 U/mL penicillin and 100 U/mL streptomycin in an incubator under 37° C. and 5% CO2, and then the cells were centrifuged at 3000 rpm for collection. The collected cells were washed with sterile physiological saline three times, and then diluted appropriately. To 40 μl tumor cell suspension, 10 μl 0.4% […] was added for staining, subsequently the tumor cell suspension in a concentration of 1×10^8 cells/ml was prepared after counting under microscope. 100 μl of the tumor cell suspension was inoculated into each of the NOD/SCID mice by subcutaneous injection at 4 weeks post immune reconstruction in 6.3, with daily observation of the presence/absence of infection at inoculation sites, the increase/decrease of tumor size (in the case of presence of a tumor), and measurement of the major axis (a) and the minor axis (b) of a tumor by a vernier caliper every 2 or 3 days (where the tumor size=a×b×b/2).
The number of T lymphocytes was counted at day 0, 7, 14 and 21 post incubation, for calculation of cell proliferation index (PI), where PI=cell number after proliferation/cell number seeded. The cytotoxic T lymphocytes (CTLs) were harvested at day 21 post incubation, which were suspended in 0.2 ml physiological saline, and then injected intravenously to the subcutaneous tumor-modeled NOD/SCID mice via the tail in an amount of 1×10^8 cells/mouse. The vital signs of the mice were observed after administration, and the major axis (a) and the minor axis (b) of a tumor were measured by a vernier caliper every 2 days for calculation of tumor size.

The next experiment deals with CD8^+ T cells. The experiment in a line: In vitro stimulation of CD8+ T cells by polypeptide-loaded mature DCs, cell counting. In kind it is cell-based, human. Particulars: CD8+ T cells with polypeptide-specific mature DCs, day 10; 2.5 × 10^6 cells before incubation. The method, then: Peripheral blood mononuclear cells (PBMCs) in 100 mL peripheral blood obtained from a HLA-A0201-positive healthy volunteer were isolated using the Ficoll solution, where CD8^+ T cells among the PBMCs were isolated with CD8 magnetic beads, and monocytes among the PBMCs were incubated by an adherence method.
The CD8^+ T cells from the volunteer in a well were incubated with the mature DCs obtained, along with IL-21, with addition of IL-2 and IL-7 after 3 days' culture and addition IL-2 and IL-7 again at day 5 and day 7 respectively, after which the collected mixture of cells were counted on day 10, for use in the next enzyme-linked immune-spot assay (ELISPOT) and lactate dehydrogenase (LDH) assay.

Where [2] appears, read: T cells activated by listed polypeptide + T2 cells loaded with mutant FILDGLYSV, effector:target 1:1.
Setting [3] is: T cells activated by listed polypeptide + T2 cells loaded with mutant FILDGLYSV, effector:target 10:1.
The mark [4] stands for this setting: T cells activated by listed polypeptide + T2 cells loaded with wild-type FILDGSYSV, effector:target 1:1.
[5] abbreviates: T cells activated by listed polypeptide + T2 cells loaded with wild-type FILDGSYSV, effector:target 10:1.

We go through six sequences from patent publication US11213563B2, “Polypeptide and use thereof” (Genoimmune Therapeutics Co., Ltd., priority 2016, dated 2022).

As for “FILDGLYSL [mutant polypeptide's variant, Leucine at position 9]”, the Killing efficiency is recorded as 8.09% in the experiment on T2 cells (setting [2]), 38.60% in the experiment with T2 cells (setting [3]), 3.12% in the experiment with T2 cells (setting [4]) and 4.71% in the experiment with T2 cells (setting [5]). The “Killing of T2 cells loaded with the mutant polypeptide by activated T cells” value in the experiment with T2 cells was “capable of killing”. The “Killing of T2 cells loaded with the wild-type polypeptide by activated T cells” value in the experiment with T2 cells was “could not kill”. In addition, in experiment [1], the Mouse survival period result is “prolonging mouse survival period significantly”. Moreover, the Tumor growth result in experiment [1] is listed as “inhibiting tumor growth”. The “Total number of cells in the well after incubation” value (from here on “Total number of cells in the well”) with CD8^+ T cells is reported as 1.35 × 10^7.
For “FILDGLYSV [mutant polypeptide from COL21A1, Serine at position 45 mutated into Leucine]”, the Killing efficiency with T2 cells (setting [2]) was 7.33%; in the experiment with T2 cells (setting [3]) it was 37.39%; in the experiment on T2 cells (setting [4]), 2.07%; with T2 cells (setting [5]), 4.93%. Moreover, the “Killing of T2 cells loaded with the mutant polypeptide by activated T cells” value with T2 cells was “capable of killing”. Besides, the “Killing of T2 cells loaded with the wild-type polypeptide by activated T cells” value with T2 cells is reported as “could not kill”. In experiment [1], the Mouse survival period result is reported as “prolonging mouse survival period significantly”. Further, the Tumor growth entry in experiment [1] was “inhibiting tumor growth”. Also, in the experiment on CD8^+ T cells, the “Total number of cells in the well” value is given as 1.22 × 10^7.
As for “FLLDGLYSL [mutant polypeptide's variant, Leucine at positions 2 and 9]”, the Killing efficiency in the experiment with T2 cells (setting [2]) was found to be 7.05%; with T2 cells (setting [3]), 35.15%; in the experiment with T2 cells (setting [4]), 3.56%; in the experiment with T2 cells (setting [5]), 6.21%. For the same sequence, in the experiment on T2 cells, the “Killing of T2 cells loaded with the mutant polypeptide by activated T cells” value is listed as “capable of killing”. Also, the “Killing of T2 cells loaded with the wild-type polypeptide by activated T cells” value in the experiment with T2 cells is “could not kill”. The Mouse survival period entry in experiment [1] is listed as “prolonging mouse survival period significantly”. The Tumor growth result in experiment [1] was “inhibiting tumor growth”. In the experiment on CD8^+ T cells, the “Total number of cells in the well” value is recorded as 1.03 × 10^7.
Turning to “FLLDGLYSV [mutant polypeptide's variant, Leucine at position 2]”, the Killing efficiency with T2 cells (setting [2]) is on record as 8.38%; in the experiment on T2 cells (setting [3]), 39.16%; in the experiment on T2 cells (setting [4]) it was 2.85%; in the experiment with T2 cells (setting [5]) it was 5.43%. In addition, the “Killing of T2 cells loaded with the mutant polypeptide by activated T cells” value with T2 cells is “capable of killing”. For the same sequence, the “Killing of T2 cells loaded with the wild-type polypeptide by activated T cells” value in the experiment with T2 cells is recorded as “could not kill”. Also, the Mouse survival period entry in experiment [1] is “prolonging mouse survival period significantly”. The Tumor growth entry in experiment [1] is “inhibiting tumor growth”. For the same sequence, the “Total number of cells in the well” value in the experiment on CD8^+ T cells is 1.42 × 10^7.
With FMLDGLYSL, the Killing efficiency is on record as 8.96% in the experiment on T2 cells (setting [2]), 40.13% with T2 cells (setting [3]), 3.13% in the experiment with T2 cells (setting [4]) and 5.83% with T2 cells (setting [5]). For the same sequence, in the experiment with T2 cells, the “Killing of T2 cells loaded with the mutant polypeptide by activated T cells” value was “capable of killing”. Further, the “Killing of T2 cells loaded with the wild-type polypeptide by activated T cells” value with T2 cells was “could not kill”. Further, in experiment [1], the Mouse survival period entry was “prolonging mouse survival period significantly”. Also, the Tumor growth entry in experiment [1] was “inhibiting tumor growth”. Further, the “Total number of cells in the well” value in the experiment with CD8^+ T cells is 1.66 × 10^7.
Take FMLDGLYSV: the Killing efficiency amounted to 9.15% in the experiment with T2 cells (setting [2]), 42.10% in the experiment with T2 cells (setting [3]), 2.37% with T2 cells (setting [4]) and 5.63% in the experiment on T2 cells (setting [5]). Besides, the “Killing of T2 cells loaded with the mutant polypeptide by activated T cells” value with T2 cells was “capable of killing”. Besides, the “Killing of T2 cells loaded with the wild-type polypeptide by activated T cells” value in the experiment on T2 cells is recorded as “could not kill”. Further, the Mouse survival period entry in experiment [1] was “prolonging mouse survival period significantly”. For the same sequence, the Tumor growth result in experiment [1] is recorded as “inhibiting tumor growth”. Also, the “Total number of cells in the well” value in the experiment on CD8^+ T cells is listed as 1.71 × 10^7.
